Experimental data published in PubChem BioAssay (NCI).
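Values below derive from 48-hour exposures of cells grown in 96-well plates, with endpoints linearly interpolated between the two concentrations bracketing the appropriate inhibition level. TGI is the concentration that stops growth completely.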

Assays:
Experiment in all cases: NCI tumour cell line growth inhibition, 48 h
ACHN renal = tested on: ACHN renal
CCRF-CEM leukemia = tested on: CCRF-CEM leukemia
HCT-15 colon = tested on: HCT-15 colon
HS 578T breast = tested on: HS 578T breast
NCI-H522 lung = tested on: NCI-H522 lung
SK-MEL-28 melanoma = tested on: SK-MEL-28 melanoma
SK-OV-3 ovarian = tested on: SK-OV-3 ovarian
UO-31 renal = tested on: UO-31 renal

| Structure (SMILES) | TGI (ACHN renal) | TGI (CCRF-CEM leukemia) | TGI (HCT-15 colon) | TGI (HS 578T breast) | TGI (NCI-H522 lung) | TGI (SK-MEL-28 melanoma) | TGI (SK-OV-3 ovarian) | TGI (UO-31 renal) |
| --- | --- | --- | --- | --- | --- | --- | --- | --- |
| COC1C(O)CC(OC2C(C)OC(Oc3cc(O)c4c(O)c5c(cc4c3)C[C@@H]([C@H](OC)C(=O)[C@@H](O)[C@@H](C)O)[C@H](OC3CC(OC4CC(OC6CC(C)(O)C(O)C(C)O6)C(O)C(C)O4)C(O)C(C)O3)C5=O)CC2OC(C)=O)OC1C (some centres undefined) | > 100 µM | > 100 µM | > 100 µM | > 100 µM | > 100 µM | > 100 µM | > 100 µM | > 100 µM |
| COC(=O)CCCc1ccc2c(c1)CC1(C2)Cc2cc3c(cc2C1)CCCC3 | > 100 µM |  | 89.3 µM | 90.9 µM | 84 µM |  | > 100 µM | > 100 µM |
| CN1CC2=C(OC(N)=C(C#N)C2c2cccs2)/C(=C/c2cccs2)C1 (centres undefined) | 38.7 µM | > 29 µM | > 100 µM | > 100 µM | > 53 µM | > 100 µM | > 100 µM | > 84.8 µM |
| CCN(CC)Cc1nc2sc3c(c2c(=O)n1-c1ccccc1)CCCC3 | 55.2 µM | > 100 µM | 51.7 µM | 93.6 µM | 44.9 µM | > 100 µM | 83.3 µM | 23.3 µM |
| COc1ccc2c(c1)O[C@@H]1C(O)Oc3cc(OC)c(OC)cc3[C@]1(O)C2=O (some centres undefined) | > 100 µM | > 100 µM | > 100 µM | > 100 µM | 36.5 µM | > 100 µM | > 100 µM |  |
| COc1ccc2nc3cc(Cl)ccc3c(NCCCCCC(=O)NC(COc3cnc4c(ccc5cccnc54)c3)COc3cnc4c(ccc5cccnc54)c3)c2c1 | > 100 µM | 12.6 µM | > 100 µM | > 100 µM | > 100 µM | > 100 µM | > 100 µM | > 100 µM |
| CC(=O)NNc1nc(C)c(C(/C=C/c2ccc3c(c2)OCO3)=N/Nc2ccccc2)s1 | > 100 µM | > 100 µM | > 100 µM | > 100 µM | > 100 µM | > 100 µM | > 100 µM | > 100 µM |
| Cc1ccc(C)n2c1nc1ccc3ccccc3c12 | > 100 µM | > 100 µM | > 100 µM | > 100 µM |  | > 100 µM | > 100 µM | > 100 µM |
| CCC(C)[C@H](NC(=O)N[C@H](C)c1ccccc1)C(=O)OC (some centres undefined) | > 100 µM | > 100 µM | > 100 µM |  |  | > 100 µM | > 100 µM | > 100 µM |
| CCNC(=O)Nc1cccc(C)n1 | > 100 µM | > 100 µM |  | > 100 µM | > 100 µM | > 100 µM | > 100 µM | > 100 µM |
| CN(C)c1ccc(/C=N/Nc2nc3ccccc3c(=O)n2-c2ccccc2)cc1 | > 100 µM | > 100 µM | > 100 µM |  | > 100 µM | > 100 µM | > 100 µM | > 100 µM |
| CCC(CCCN)Nc1cc(OC)cc2cccnc12 (centres undefined) | > 100 µM | > 100 µM | > 100 µM | > 100 µM |  | > 100 µM | > 100 µM | > 100 µM |
| S=C1c2ccccc2NC(=NC2CCCC2)C2CSCN12 (centres undefined) | > 100 µM | > 100 µM | > 100 µM | > 100 µM | > 100 µM | > 100 µM | > 100 µM | > 100 µM |
| C=CCC(C)C12CCNC(Cc3ccc(O)cc31)C2C (centres undefined) | > 100 µM | > 100 µM | > 100 µM | > 100 µM |  | > 100 µM | > 100 µM | > 100 µM |
| Cc1ccc([N+](=O)[O-])cc1S(=O)(=O)Nc1ccc(C2=NN(c3ccc([N+](=O)[O-])cc3[N+](=O)[O-])C(c3ccccc3)C2)cc1 (centres undefined) | 40.3 µM | > 100 µM | 36.8 µM | 72 µM | 25.9 µM | > 100 µM | 65.8 µM | 31.3 µM |
| CC(C)/C(Cl)=N/OC(=O)Nc1ccc(F)c(Cl)c1 | 4.13 µM | > 20.2 µM | 4.16 µM | 53.3 µM | 3.01 µM | 5.46 µM | 30 µM | 30.4 µM |
| c1ccc2c(-c3cnc(-c4c[nH]c5ccccc45)cn3)c[nH]c2c1 | > 100 µM |  | > 100 µM | > 100 µM | 64.2 µM | > 100 µM | > 100 µM | > 100 µM |
| Brc1ccc(N=NN2CCCCC2)cc1 | > 100 µM | 56.9 µM | > 100 µM | > 100 µM | > 100 µM |  | > 100 µM | > 100 µM |
| COc1ccc(N[C@H](CS(=O)c2ccc(C)cc2)c2ccc(F)cc2)cc1 (some centres undefined) | > 100 µM | > 100 µM | > 100 µM |  | > 100 µM | > 100 µM | > 100 µM | > 100 µM |
| CC(=O)C(C(C)=O)=C1CCCC(O)O1 (centres undefined) | > 100 µM | > 100 µM | > 100 µM | > 100 µM |  | > 100 µM | > 100 µM | > 100 µM |
| CC(=O)NCCCCNCCCNC(C)=O | > 100 µM | > 100 µM | > 100 µM | > 100 µM | > 100 µM | > 100 µM | > 100 µM | > 100 µM |
| Cn1ccnc1S/C(=C\C=C(C#N)C#N)c1ccc(Cl)cc1 | 2.09 µM | > 11.2 µM | 9.11 µM | 13.6 µM | 11.5 µM |  | 38.8 µM | 9.34 µM |
| CC(=O)O/C=C\OC1CCCC1(c1ccccc1)c1ccccc1 (centres undefined) | 4.36 µM | 5.71 µM | 4.7 µM | 9.8 µM | 23.3 µM | 4.59 µM | 27.6 µM | 3.61 µM |
| C=CC(=O)N1C/C(=C\c2ccc(N(C)C)cc2)C(=O)/C(=C/c2ccc(N(C)C)cc2)C1 | > 100 µM |  | > 100 µM | > 100 µM |  | > 100 µM |  | > 100 µM |
| CC(C)Oc1c(-c2c(OC(C)C)c(=O)c2=O)c(=O)c1=O | > 100 µM | > 100 µM | > 100 µM | > 67 µM | > 27.7 µM | > 100 µM | > 100 µM | > 100 µM |
| Cc1cn(C2CC(n3cc(Cn4cc(F)c(=O)[nH]c4=O)nn3)C(CO)O2)c(=O)[nH]c1=O (centres undefined) | > 100 µM | > 100 µM | > 100 µM | > 100 µM |  | > 100 µM | > 100 µM | > 100 µM |
